Experimental data published in US9688653B2, “Ethoxyphenyl thienyl compounds and methods for the treatment of bacterial infections” (Duke University, priority 2013, dated 2017).

What was measured:
[1] = test system: Bladder carcinoma 5637 cells; experiment: Cytotoxicity counterscreen, CellTiter Glo, 72 hr; type: cell-based, human
Protocol: B. Counterscreen: Cytotoxicity Screening for Potential Inhibitors of Bacterial Capsule Biogenesis.
Purpose: This cell-based assay measures the cytotoxicity of compounds in bladder carcinoma 5637 cells using luminescent cell viability assay readout.
Cytotoxicity assay: The cytotoxicity assay was performed as described in Section 6: Appendix. Hit cytotoxicity and the 50% toxic concentration (CC50) was determined and compared to the IC50 to calculate the selectivity index.
Assay Description: Cytotoxicity: Dose response testing (dose range=300-0.58 μM) established the hit cytotoxicity data. Compounds were plated in 384-well microplates in a stacked dose response format using the same doses used in the efficacy dose response. Bladder carcinoma 5637 cells were added to the compounds, and 72 hr later cell viability was measured using CellTiter Glo (38). Hit cytotoxicity and the 50% toxic concentration (TC50) was determined and compared to the IC50 to calculate the therapeutic index. Test compounds are serially diluted in a plate to plate matrix or stacked plate matrix. All 320 compounds in a source plate are diluted together resulting in a 10 point dose response dilution series. It is visualized as a serial dilution series proceeding vertically through a stack of plates with the high dose plate on top and the low dose plate on the bottom.
Control Drug: Hyamine was used as a positive cytotoxic control. All wells contained 0.5% DMSO.
Preparation of Bladder carcinoma 5637 cells: Cells are harvested and resuspended to 80,000 cells per ml in Complete DMEM/F12®.
Endpoint Read: Following the three day incubation period, the assay plates were equilibrated to room temperature for 30 min and an equal volume (30 μL) of Cell Titer-Glo® reagent (Promega Inc.) is added to each well using a WellMate™ (Matrix, Hudson, N.H.) and plates are incubated for an additional 10 min at room temperature. At the end of the incubation, luminescence is measured using a Perkin Elmer Envision™ multi-label reader (PerkinElmer, Wellesley, Mass.) with an integration time of 0.1 s.
Cytotoxicity. Testing was performed essentially as previously described. Concentration-response testing was performed over a range 0.58-300 μM in a […] well plate format. Bladder carcinoma 5637 cells (ATCC HTB-9) were added to the compounds, and 72 hrs later cell viability was measured using CellTiter Glo (Promega). The 50% toxic concentration (TC50) was determined and compared to the IC50 to calculate the therapeutic index. Hyamine was used as a positive cytotoxic control. All wells contained 0.5% DMSO.

E. coli K1 strain UTI89 [2] = experiment: microbe, parasite or virus in culture; details: read-out: K1 phage IC50, n = 3
Description: The ability of the […] to bind to bacterial capsule, infect, and lyse E. coli UT189 was used as the primary assay to identify the effects of screened compounds on bacterial capsule formation. The phenotypic end-point assay measured the fluorescence generated by cellular processing of Alamar Blue as a direct indicator of cell viability. A total of […] compounds were screened using the primary assay. […] Hits were further evaluated using […] secondary assays for alternative measurement of compound-induced reduction in bacterial capsule formation (secondary assays 1 and 2) and specificity (secondary assays 3 and 4). Confirmed actives with an SI>5 were further investigated and subjected to chemical optimization, followed by secondary assay evaluation. Secondary assays more closely characterized the ability of the compounds to reduce bacterial capsule formation and can be used to examine the mechanism of action of the compounds. The combination of primary assay (to measure capsule reduction), counter assay (for general eukaryotic cell toxicity) and secondary assay (to measure reduction in capsule formation and specificity) were combined to allow a determination of probe efficacy, selectivity, and specificity.
A. Primary Assay: Screening for Inhibitors of Bacterial Capsule Biogenesis.
Primary assay: An end-point assay to measure the amount of K1 phage-induced bacterial cell lysis was employed to determine the compound effect on capsule biogenesis. K1 bacteriophage specifically binds the bacterial capsule during the initial stages of infection. Bacteria without capsule cannot be infected and lysed by the bacteriophage. […] A total of 338,740 compounds were screened at 100 μM in the primary screen Inhibition of phage lysis was calculated relative to the mean of the bacterial (positive) control on each microtiter plate. […] For calculation of S/B/Z value, and CV, the following formulae (in which SD stands for standard deviation) were used: S/B=mean signal/mean background; Z=1-3SD of sample+3SD of control mean of sample−mean of control; % CV=(SD mean signal/mean signal)×100.
IC50 values were calculated using a 4 parameter Levenburg-Marquardt algorithm, with the maximum and minimum locked at 0 and 100 respectively.
Primary assay: The primary assay was conducted in the 1,536 well plate format. Bacterial cultures of E. coli K1 strain UTI89 (cystitis isolate) and isogenic capsule mutant strains (as controls for phage infection) were grown and prepared at the screening center immediately prior to use. Overnight starting cultures of UTI89 were grown at 37° C., and inoculated into 1 liter of LB (starting OD600˜0.03), which was sufficient for screening 40 plates (including ˜10% waste) and ˜40,000 compounds as single points.
Control wells contained UTI89 (wt K1) with 0.5% DMSO as a simulated positive control; UTI89 with 0.5% DMSO and tetracycline for a negative growth control; and media plus vehicle control. 50 mL of LB Broth was inoculated with stock 150 μL E. coli UT189 and grown overnight at 37° C. The next day, cultures were diluted 1:75 in 1 L of LB Broth containing 0.5% DMSO. 3 μL of this culture was added to each plate well, and plates were incubated, inverted, at 37° C. for 2 hr. The K1F bacteriophage stock was diluted 1:8 in LB Broth containing 0.5% DMSO, and 1.5 μL of diluted phage (or media only) was added to the pre-plated test compound wells and appropriate control wells. The plates were centrifuged briefly, and then were incubated, inverted, at 37° C. for an additional 2 hr. Afterward, Alamar Blue reagent (Invitrogen, #DAL1100) was diluted 1:2 with LB broth and 1 μL was added to each plate well.

E. coli K1 strain UTI89 [3] = experiment: Secondary assay 2: T7 phage-mediated lysis assay; type: cell-based, Escherichia coli; details: n = 2, read-out: T7 phage IC50
Description: D. Secondary Assay 2: Screening for Inhibitors of Bacterial Capsule Biogenesis—T7 Lysis Inhibition
Purpose: This secondary assay measures the compound mechanistic specificity for inhibition of bacterial capsule formation and excludes inhibitors of phage replication using a different bacteriophage (T7). In this assay, an increase in phage-induced lysis correlates to a decrease in capsule formation.
Purpose: This secondary assay measures the compound mechanistic specificity for inhibition of bacterial capsule formation using a different bacterial phage (T7). In this assay, an increase in phage-induced lysis correlates to a decrease in capsule formation.
Assay Description: T7 phage-mediated lysis assay: This assay determined if the mechanism of action of the compound is inhibition of phage infectivity or replication. The T7 phage has a nearly identical genome to K1F, without encoding an endosialidase. Its cycle of replication is similar to that of K1F as well. However, T7 entry into E. coli is inhibited by K capsules. This secondary assay was conducted in the 96 well plate format. […] Compounds were added in quadruplicate to plates in a concentration dependent manner in the range of 100-0.39 μM, followed by addition of 100 μL of bacterial culture. 1% DMSO (final well concentration) was included. The plates were tape sealed and shaken vigorously for 1.5 hr. An initial OD600 reading was measured to identify compounds that cause growth retardation or bacterial killing in the absence of phage. Next, T7 phage (5 μL) was added to all of the test wells. The plates were resealed and shaken vigorously at 37° C., and measurements of OD600 for phage-mediated lysis were taken after 3 hr. True inhibitors of capsule yielded bacteria that were susceptible to T7 phage and lysed within 2 hr of the addition of phage. […] The positive control drug C7 (100 μM final well concentration) was used in this screen.
T7 phage counter assay. This secondary assay was performed as previously described and was used to distinguish compounds with phage inhibitory effects from true polysaccharide capsule inhibitors. […] Thus, the presence of a capsule inhibits T7-mediated lysis. In this assay, an increase in phage-induced lysis correlates to a decrease in capsule formation. True inhibitors of capsule yielded bacteria that were susceptible to T7 phage and lysed within 2 hr of the addition of phage. […] The positive control molecule C7 (100 μM final well concentration) was used in this screen.

[4] = first round of synthetic analogues
[5] = second round of synthetic analogues

Compound	IC50 [1] [µM]	IC50 (E. coli K1 strain UTI89 [2]; [4]) [µM]	IC50 (E. coli K1 strain UTI89 [3]; [4]) [µM]	IC50 (E. coli K1 strain UTI89 [2]; [5]) [µM]	IC50 (E. coli K1 strain UTI89 [3]; [5]) [µM]
Cc1ccc(-c2cc(NC(=O)c3cccc(F)c3)c(C(=O)O)s2)cc1 [compound 53470441]	43.9	53.7	7.21		
COc1ccc(-c2cc(NC(=O)c3cc4ccccc4o3)c(C(=O)O)s2)cc1 [compound 53470443]	44.8	> 100	8.36		
CC(C)c1ccc(-c2cc(NC(=O)c3cccc(F)c3)c(C(=O)O)s2)cc1 [compound 53470444]	37.6	24.8	2.81		
COc1ccc(-c2cc(NC(=O)c3cccc(F)c3)c(C(=O)O)s2)cc1 [compound 53470445]	44.8	> 100	8.36		
COc1ccc(-c2cc(NC(=O)c3ccc(Br)o3)c(C(=O)O)s2)cc1 [compound 53470446]	50.5	11.1	1.24		
O=C(O)c1sc(-c2ccc(OC(F)(F)F)cc2)cc1NC(=O)c1c(F)cccc1F [compound 53495055]	51	13	1.35		
O=C(Nc1cc(-c2ccc(OC(F)(F)F)cc2)sc1C(=O)O)c1cccc(F)c1 [compound 53495056]	52.1	> 100	> 5		
O=C(Nc1cc(-c2ccc(OC(F)(F)F)cc2)sc1C(=O)O)c1ccc(Br)o1 [compound 53495057]	33.6	6.39	1.17		
O=C(Nc1cc(-c2ccc(OC(F)(F)F)cc2)sc1C(=O)O)c1cc2ccccc2o1 [compound 53495058]	40.6	> 100	3.83		
O=C(O)c1sc(-c2ccc(OCC(F)(F)F)cc2)cc1NC(=O)c1c(F)cccc1F [compound 56643002]	75.2			2.86	< 0.625
O=C(Nc1cc(-c2ccc(OCC(F)(F)F)cc2)sc1C(=O)O)c1ccc(Br)o1 [compound 56643003]	50			4.9	0.625
CCCc1ccc(-c2cc(NC(=O)c3cc(Br)c(Br)o3)c(C(=O)O)s2)cc1 [compound 56643005]	41			6.78	< 5
CCOc1ccc(-c2cc(NC(=O)c3c(F)cc(F)cc3F)c(C(=O)O)s2)cc1 [compound 56643006]	76.6			20	< 5
CCCCOc1ccc(-c2cc(NC(=O)c3c(F)cccc3F)c(C(=O)O)s2)cc1 [compound 56643007]	42.6			< 0.78	< 0.625
O=C(Nc1cc(-c2ccc(OCCCC(F)(F)F)cc2)sc1C(=O)O)c1ccc(Br)o1 [compound 56643008]	38.7			1.78	< 2.5
O=C(Nc1cc(-c2ccc(OCCCC(F)(F)F)cc2)sc1C(=O)O)c1cc(Br)c(Br)o1 [compound 56643009]	251			> 100	< 2.5
O=C(O)c1sc(-c2ccc(OCCC(F)(F)F)cc2)cc1NC(=O)c1c(F)cc(F)cc1F [compound 56643010]	63.6			3.11	< 0.625
CCCc1ccc(-c2cc(NC(=O)c3c(F)cc(F)cc3F)c(C(=O)O)s2)cc1 [compound 56643011]	69.9			15.9	2.5 to 5
O=C(O)c1sc(-c2ccc(OCC(F)(F)F)cc2)cc1NC(=O)c1c(F)cc(F)cc1F [compound 56643012]	161			94.9	2.5 to 5
CCCc1ccc(-c2cc(NC(=O)c3ccc(Br)o3)c(C(=O)O)s2)cc1 [compound 56643013]	46.4			1.43	< 0.625
O=C(O)c1sc(-c2ccc(OCCCC(F)(F)F)cc2)cc1NC(=O)c1c(F)cc(F)cc1F [compound 56643015]	54.7			5.53	< 1.25
